Residue numbers refer to the chain shown, from its start. Where two headings read alike, the source gives them in different places.
How the values were obtained:
[1] = tested on: AR-amplified prostate cancer cells; conditions: cited from earlier work
[2] = molecular target: T1, AR protein (Homo sapiens, UniProt P10275); experiment: Western blotting analysis of AR protein levels in VCaP cells, band quantification, DC50/DC90; format: cell-based; conditions: for DC90: calculated from DC50 and Hillslope
T1 construct: endogenous in cells; host or cells: VCaP
T1 sequence (P10275 1-920): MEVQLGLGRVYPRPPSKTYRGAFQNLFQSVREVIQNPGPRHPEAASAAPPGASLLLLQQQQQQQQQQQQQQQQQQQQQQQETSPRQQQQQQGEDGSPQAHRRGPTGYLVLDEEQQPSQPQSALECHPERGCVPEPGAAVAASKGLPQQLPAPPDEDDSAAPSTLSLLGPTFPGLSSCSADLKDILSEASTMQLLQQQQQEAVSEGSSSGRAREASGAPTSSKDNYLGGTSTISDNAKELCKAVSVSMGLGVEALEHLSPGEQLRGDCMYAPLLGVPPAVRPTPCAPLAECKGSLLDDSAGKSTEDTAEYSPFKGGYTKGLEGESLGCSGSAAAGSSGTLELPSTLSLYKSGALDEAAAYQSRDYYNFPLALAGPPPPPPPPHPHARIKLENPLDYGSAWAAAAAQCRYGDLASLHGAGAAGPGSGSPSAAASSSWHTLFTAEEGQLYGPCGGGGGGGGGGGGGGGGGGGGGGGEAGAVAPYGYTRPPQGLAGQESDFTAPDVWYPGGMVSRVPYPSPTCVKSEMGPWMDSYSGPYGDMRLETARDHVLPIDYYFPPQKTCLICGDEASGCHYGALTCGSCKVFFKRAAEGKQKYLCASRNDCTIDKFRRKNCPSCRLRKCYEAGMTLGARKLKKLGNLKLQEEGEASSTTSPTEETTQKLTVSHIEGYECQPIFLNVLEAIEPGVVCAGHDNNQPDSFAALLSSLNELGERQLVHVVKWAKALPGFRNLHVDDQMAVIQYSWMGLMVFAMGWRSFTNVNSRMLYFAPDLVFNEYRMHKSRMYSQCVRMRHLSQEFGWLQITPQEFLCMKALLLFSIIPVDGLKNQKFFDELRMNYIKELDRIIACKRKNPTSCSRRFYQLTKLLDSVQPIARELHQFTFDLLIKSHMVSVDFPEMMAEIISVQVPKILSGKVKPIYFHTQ
Summary of the method: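 VCaP cells treated with compounds, lysed in RIPA and probed for AR by Western blot with GAPDH loading control. Band intensities normalised to GAPDH; DC50 from curve fit, DC90 calculated from DC50 and Hill slope via four-parameter equation.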

[3] = tested on: AR protein; experiment: Western blotting analysis of AR protein levels in 22RV1 cells, band quantification, DC50/DC90; format: cell-based; conditions: prostate cancer 22RV1 cells, 24 h treatment; for DC90: calculated from DC50 and Hillslope
Method: (§1) The appropriate cell line, e.g., prostate cancer LNCaP, Vcap, or 22RV1 cell line, was treated with Compounds of the Disclosure as indicated. The treated cells were lysed with RIPA buffer. The AR level in the cell lysates was examined by western blotting and a specific AR antibody (ab194196, Abcam, Cambridge, Mass. 02139) with concentration of 1:20,000. GAPDH was used as a loading control.
(§2) Bands were quantified with ImageJ software. The relative numbers of each band obtained from normalization with its corresponding GAPDH level were compared with Prism 8 software. The DC50 values were produced from Prism 8, and the DC90 values were calculated with an equation=Bottom+(Top−Bottom)/(1+10^((Log EC50−X)*HillSlope) based on DC50 and Hillslope values.

[4] = molecular target: T2, AR protein (Homo sapiens, UniProt P10275, T878A); experiment: Western blotting analysis of AR protein levels in LNCaP cells, band quantification, DC50/DC90; format: cell-based; conditions: prostate cancer LNCaP cells, 24 h treatment; for DC90: calculated from DC50 and Hillslope
T2 construct: endogenous in cells; host or cells: LNCaP
T2 sequence (P10275 1-920 T878A): T1 sequence (P10275 1-920) with T878A
Method: as §1, §2

[5] = Mouse PK studies after oral and IV dosing; format: in vivo; conditions: for AUC(0-t) / clearance / half-life / Vd / Cmax / Tmax: in vivo; for clearance: read-out: IV Cl (converted); for Vd: read-out: IV VSS
Method: The pharmacokinetics of representative Compounds of the Disclosure were determined after oral and IV dosing at the concentrations indicated in mouse (Table 7). […] The vehicles used in these studies are either (i) 10% PEG400+90% PBS (adjusted to pH to 8.0 by 0.5 N NaOH); or (ii) 100% PEG200.

[6] = tested on: AR protein; experiment: AR degradation in MDA-MB-453 cells (Western blotting); format: cell-based; conditions: 24 hr treatment
Method: as §1, §2

[7] = prostate cancer Vcap cells, 24 h treatment

## Cc1ncsc1-c1ccc(CNC(=O)C2C[C@@H](O)CN2C(=O)[C@@H](NC(=O)COCCCCOc2ccc(-c3ccc(N4C(=S)N(c5ccc(C#N)c(C(F)(F)F)c5)C(=O)C4(C)C)cc3)cc2)C(C)(C)C)cc1 (stereo partly drawn) [ARCC-4, (4R)-1-((S)-2-(2-(4-((4′-(3-(4-cyano-3-(trifluoromethyl)phenyl)-5,5-dimethyl-4-oxo-2-thioxoimidazolidin-1-yl)-[1,1′-biphenyl]-4-yl)oxy)butoxy)acetamido)-3,3-dimethylbutanoyl)-4-hydroxy-N-(4-(4-methylthiazol-5-yl)benzyl)pyrrolidine-2-carboxamide]
[1]
  inducing apoptosis and inhibiting proliferation, compared with enzalutamide: more potent and effective than enzalutamide

## C[C@H]1CC2(CCN(c3ccc(C(=O)N4CCN(C5CN(c6ccc7c(c6)C(=O)N(C6CCC(=O)NC6=O)C7=O)C5)CC4)cc3)CC2)CN1c1ccc(C#N)c(Cl)c1 (stereo partly drawn) [Cpd. No. 293, 2-chloro-4-((3S)-8-(4-(4-(1-(2-(2,6-dioxopiperidin-3-yl)-1,3-dioxoisoindolin-5-yl)azetidin-3-yl)piperazine-1-carbonyl)phenyl)-3-methyl-2,8-diazaspiro[4.5]decan-2-yl)benzonitrile]
[2]; [7]
  DC50: 31 pM
  DC90: 410 pM
[3]
  DC50: 140 pM
  DC90: 230 pM
[4]
  DC50: 300 pM
  DC90: 330 pM

## C[C@H]1CC2(CCN(c3ccc(C(=O)N4CCC(N5Cc6cc7c(cc6C5)C(=O)N(C5CCC(=O)NC5=O)C7=O)CC4)cc3)CC2)CN1c1ccc(C#N)c(Cl)c1 (stereo partly drawn) [Cpd. No. 307, 2-chloro-4-((3S)-8-(4-(4-(6-(2,6-dioxopiperidin-3-yl)-5,7-dioxo-3,5,6,7-tetrahydropyrrolo[3,4-f]isoindol-2(1H)-yl)piperidine-1-carbonyl)phenyl)-3-methyl-2,8-diazaspiro[4.5]decan-2-yl)benzonitrile]
[2]; [7]
  DC90: 199 pM
[2]; prostate cancer Vcap cells, 24 h treatment, read-out: DC50
  DC50: 46 pM
[3]
  DC50: 900 pM
  DC90: 3100 pM
[4]
  DC90: 110 pM
[4]; read-out: DC50
  DC50: 82 pM
[5]; PO 5 mg/kg vs IV 2 mg/kg
  F: 67%
[5]; iv, 2 mg/kg, IV, dose 2 mg/kg, read-out: IV AUC(0 − t)
  AUC(0-t): 50500 ng·h/mL
[5]; iv, 2 mg/kg, IV, dose 2 mg/kg
  clearance: 0.667 mL/min/kg
  Vd: 0.23 L/kg
[5]; iv, 2 mg/kg, IV, dose 2 mg/kg, read-out: IV T1/2 (converted)
  half-life: 4.34 h
[5]; po, 5 mg/kg
  Cmax: 9120 ng/mL
  Tmax: 2 h
[5]; po, 5 mg/kg, PO, dose 5 mg/kg, read-out: PO AUC(0 − t)
  AUC(0-t): 85200 ng·h/mL
[5]; po, 5 mg/kg, PO, dose 5 mg/kg, read-out: PO T1/2 (converted)
  half-life: 4.4 h

## C[C@H]1CC2(CCN(c3ccc(C(=O)N4CCN(CC5CN(c6ccc7c(c6)C(=O)N(C6CCC(=O)NC6=O)C7=O)C5)CC4)c(F)c3)CC2)CN1c1ccc(C#N)c(Cl)c1 (stereo partly drawn) [Cpd. No. 529, 2-chloro-4-((3S)-8-(4-(4-((1-(2-(2,6-dioxopiperidin-3-yl)-1,3-dioxoisoindolin-5-yl)azetidin-3-yl)methyl)piperazine-1-carbonyl)-3-fluorophenyl)-3-methyl-2,8-diazaspiro[4.5]decan-2-yl)benzonitrile]
[2]; VCaP cells, Table 6, read-out: VCaP DC50
  DC50: 1000 to 10000 pM
[5]; PO 3 mg/kg vs IV 1 mg/kg
  F: 45%
[5]; iv, 1 mg/kg, IV, dose 1 mg/kg, read-out: IV AUC(0 − t)
  AUC(0-t): 5130 ng·h/mL
[5]; iv, 1 mg/kg, IV, dose 1 mg/kg
  clearance: 3.33 mL/min/kg
  Vd: 2.2 L/kg
[5]; iv, 1 mg/kg, IV, dose 1 mg/kg, read-out: IV T1/2 (converted)
  half-life: 10.2 h
[5]; po, 3 mg/kg
  Cmax: 507 ng/mL
  Tmax: 3.3 h
[5]; po, 3 mg/kg, PO, dose 3 mg/kg, read-out: PO AUC(0 − t)
  AUC(0-t): 6920 ng·h/mL
[5]; po, 3 mg/kg, PO, dose 3 mg/kg, read-out: PO T1/2 (converted)
  half-life: 8.5 h

## N#Cc1ccc(OC2CC3(C2)CN(C(=O)c2ccc(C4CCN(CC5CCN(c6ccc7c(c6)C(=O)N(C6CCC(=O)NC6=O)C7=O)CC5)CC4)cc2)C3)cc1Cl (stereo not drawn) [compound 480]
[6]
  degradation at 10 nM: B (>50% degradation but <90% (24 hr treatment))
  degradation at 100 nM: A (>90% degradation (24 hr treatment))

## N#Cc1ccc(N2CC3(CN(C(=O)c4ccc(C5CCN(CC6CCN(c7ccc8c(c7)C(=O)N(C7CCC(=O)NC7=O)C8=O)CC6)CC5)cc4)C3)C2)cc1Cl (stereo not drawn) [compound 481]
[6]
  degradation at 10 nM: B (>50% degradation but <90% (24 hr treatment))
  degradation at 100 nM: A (>90% degradation (24 hr treatment))

Reference: patent US20220380368A1, “SPIROCYCLIC ANDROGEN RECEPTOR PROTEIN DEGRADERS” (THE REGENTS OF THE UNIVERSITY OF MICHIGAN, priority 2019, published 2022)
